Assay results published in ChEMBL document CHEMBL5230151, “A review of synthetic bioactive tetrahydro-β-carbolines: A medicinal chemistry perspective” (Eur J Med Chem, 2021).
Values after ≈ are worked out from the molar mass of the structure shown. Blank lines part the entries; values can stand above or below the molecule they belong to.

Legend:
[1] = tested on: Tobacco mosaic virus; assay: In vivo antiviral activity against tobacco mosaic virus assessed as virus inactivation at 500 ug/ml relative to control; assay type: functional; settings: dose 500 µg/ml
[2] = tested on: Tobacco mosaic virus; assay: In vivo antiviral activity against tobacco mosaic virus assessed as curative activity at 500 ug/ml relative to control; assay type: functional; settings: dose 500 µg/ml
[3] = tested on: Tobacco mosaic virus; assay: In vivo antiviral activity against tobacco mosaic virus assessed as protection activity at 500 ug/ml relative to control; assay type: functional; settings: dose 500 µg/ml
[4] = molecular target: T1, Protein deacetylase HDAC6 (Homo sapiens, UniProt Q9UBN7); assay: Inhibition of human HDAC6
T1 sequence (Q9UBN7 whole entry): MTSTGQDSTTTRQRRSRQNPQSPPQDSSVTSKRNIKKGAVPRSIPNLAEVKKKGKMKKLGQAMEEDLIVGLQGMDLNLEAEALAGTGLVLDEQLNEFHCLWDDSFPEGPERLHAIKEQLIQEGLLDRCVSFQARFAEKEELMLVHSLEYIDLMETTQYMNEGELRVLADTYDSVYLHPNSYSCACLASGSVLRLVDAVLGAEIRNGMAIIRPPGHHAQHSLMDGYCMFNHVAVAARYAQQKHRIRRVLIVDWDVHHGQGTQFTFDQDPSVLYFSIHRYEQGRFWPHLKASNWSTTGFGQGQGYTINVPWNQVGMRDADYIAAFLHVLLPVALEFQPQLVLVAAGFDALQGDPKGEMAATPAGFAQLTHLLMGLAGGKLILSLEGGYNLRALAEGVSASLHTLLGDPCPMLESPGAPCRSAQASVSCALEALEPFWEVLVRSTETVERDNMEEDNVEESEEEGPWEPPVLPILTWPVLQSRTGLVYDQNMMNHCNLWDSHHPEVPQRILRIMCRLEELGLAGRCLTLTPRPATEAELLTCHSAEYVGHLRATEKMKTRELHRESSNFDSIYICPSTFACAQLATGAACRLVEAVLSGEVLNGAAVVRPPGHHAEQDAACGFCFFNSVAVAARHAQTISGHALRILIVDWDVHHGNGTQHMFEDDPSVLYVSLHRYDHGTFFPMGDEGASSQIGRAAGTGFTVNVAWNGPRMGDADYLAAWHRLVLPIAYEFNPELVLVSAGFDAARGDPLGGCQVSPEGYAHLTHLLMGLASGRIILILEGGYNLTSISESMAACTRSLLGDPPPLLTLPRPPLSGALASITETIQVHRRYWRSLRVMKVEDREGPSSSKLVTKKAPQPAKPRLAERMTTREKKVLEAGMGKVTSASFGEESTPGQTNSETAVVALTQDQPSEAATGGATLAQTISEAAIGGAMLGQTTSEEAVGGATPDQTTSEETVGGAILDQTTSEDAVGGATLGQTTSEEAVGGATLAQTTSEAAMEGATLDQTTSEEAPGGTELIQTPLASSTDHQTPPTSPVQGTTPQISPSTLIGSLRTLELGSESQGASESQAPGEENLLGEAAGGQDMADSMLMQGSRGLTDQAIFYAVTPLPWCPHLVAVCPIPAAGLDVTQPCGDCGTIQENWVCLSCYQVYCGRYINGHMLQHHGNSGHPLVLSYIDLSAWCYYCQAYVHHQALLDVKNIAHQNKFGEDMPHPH

[5] = molecular target: Histone deacetylase 1 (Homo sapiens, UniProt Q13547); assay: Inhibition of human HDAC1
Histone deacetylase 1, sequence (Q13547 whole entry): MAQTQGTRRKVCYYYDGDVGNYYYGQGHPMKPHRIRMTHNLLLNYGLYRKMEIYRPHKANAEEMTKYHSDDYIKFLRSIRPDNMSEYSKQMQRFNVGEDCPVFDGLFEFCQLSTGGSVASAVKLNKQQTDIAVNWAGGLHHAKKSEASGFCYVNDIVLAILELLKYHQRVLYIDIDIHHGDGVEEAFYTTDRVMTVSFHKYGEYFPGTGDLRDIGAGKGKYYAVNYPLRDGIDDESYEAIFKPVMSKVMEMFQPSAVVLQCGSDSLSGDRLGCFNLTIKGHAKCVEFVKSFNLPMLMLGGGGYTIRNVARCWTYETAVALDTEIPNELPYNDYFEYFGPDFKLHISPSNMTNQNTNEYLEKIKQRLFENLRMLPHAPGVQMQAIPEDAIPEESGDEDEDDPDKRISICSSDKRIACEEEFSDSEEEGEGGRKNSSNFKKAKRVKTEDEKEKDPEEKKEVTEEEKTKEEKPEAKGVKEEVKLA

[6] = molecular target: T2, cGMP-specific 3',5'-cyclic phosphodiesterase (Homo sapiens, UniProt O76074); assay: Inhibition of human PDE5A using fluorescence-labelled substrate
[7] = molecular target: T3, Kinesin-like protein KIF11 (Homo sapiens, UniProt P52732); assay: Inhibition of Eg5 ATPase activity (unknown origin)
T3 sequence (P52732 whole entry): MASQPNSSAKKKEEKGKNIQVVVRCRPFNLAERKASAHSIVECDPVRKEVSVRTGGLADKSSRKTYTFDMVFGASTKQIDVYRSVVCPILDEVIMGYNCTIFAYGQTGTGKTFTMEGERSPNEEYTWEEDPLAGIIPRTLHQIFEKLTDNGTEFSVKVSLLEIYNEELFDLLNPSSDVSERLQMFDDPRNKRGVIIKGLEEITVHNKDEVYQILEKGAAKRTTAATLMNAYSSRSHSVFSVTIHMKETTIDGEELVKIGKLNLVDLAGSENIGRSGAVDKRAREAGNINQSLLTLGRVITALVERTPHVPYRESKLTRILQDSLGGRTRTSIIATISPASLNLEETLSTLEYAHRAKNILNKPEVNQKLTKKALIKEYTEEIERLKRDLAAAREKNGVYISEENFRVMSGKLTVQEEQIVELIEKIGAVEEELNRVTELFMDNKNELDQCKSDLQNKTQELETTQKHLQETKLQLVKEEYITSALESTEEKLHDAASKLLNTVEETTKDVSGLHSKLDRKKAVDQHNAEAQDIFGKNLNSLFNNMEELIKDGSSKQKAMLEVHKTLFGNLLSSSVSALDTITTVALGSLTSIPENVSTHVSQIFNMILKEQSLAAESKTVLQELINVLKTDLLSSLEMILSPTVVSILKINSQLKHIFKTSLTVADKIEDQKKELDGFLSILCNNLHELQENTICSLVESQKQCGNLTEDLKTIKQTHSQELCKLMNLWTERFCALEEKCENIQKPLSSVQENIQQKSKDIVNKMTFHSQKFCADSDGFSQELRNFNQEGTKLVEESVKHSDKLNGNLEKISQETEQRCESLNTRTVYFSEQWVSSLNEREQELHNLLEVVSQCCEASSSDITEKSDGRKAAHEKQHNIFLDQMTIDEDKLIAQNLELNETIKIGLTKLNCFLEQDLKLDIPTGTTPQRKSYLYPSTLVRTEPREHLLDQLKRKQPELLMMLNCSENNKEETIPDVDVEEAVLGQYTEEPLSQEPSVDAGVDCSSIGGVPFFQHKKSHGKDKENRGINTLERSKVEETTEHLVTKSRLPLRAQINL

[8] = molecular target: T4, Acetylcholinesterase (Electrophorus electricus, UniProt O42275); assay: Inhibition of electric eel AChE using acetylthiocholine iodide as substrate measured after 20 mins by Ellmans method
T4 sequence (O42275 whole entry): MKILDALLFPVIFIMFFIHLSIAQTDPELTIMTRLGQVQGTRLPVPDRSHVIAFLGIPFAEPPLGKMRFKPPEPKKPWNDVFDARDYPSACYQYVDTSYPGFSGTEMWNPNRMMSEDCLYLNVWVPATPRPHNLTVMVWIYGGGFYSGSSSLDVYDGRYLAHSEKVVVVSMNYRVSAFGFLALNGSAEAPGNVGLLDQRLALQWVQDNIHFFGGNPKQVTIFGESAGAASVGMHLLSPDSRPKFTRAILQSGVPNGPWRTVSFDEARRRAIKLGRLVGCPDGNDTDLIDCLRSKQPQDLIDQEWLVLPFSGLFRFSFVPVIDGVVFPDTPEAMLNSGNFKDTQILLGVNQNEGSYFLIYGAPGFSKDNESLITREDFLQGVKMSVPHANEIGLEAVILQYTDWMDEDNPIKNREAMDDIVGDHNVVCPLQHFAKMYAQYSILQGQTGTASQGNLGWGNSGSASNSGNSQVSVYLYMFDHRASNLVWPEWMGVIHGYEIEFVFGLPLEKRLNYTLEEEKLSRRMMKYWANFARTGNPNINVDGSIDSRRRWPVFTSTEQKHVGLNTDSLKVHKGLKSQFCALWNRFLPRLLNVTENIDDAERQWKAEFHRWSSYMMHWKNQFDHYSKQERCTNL

[9] = tested on: Gaeumannomyces graminis; assay: Antifungal activity against Gaeumannomyces graminis at 10 mg/ml relative to control; assay type: functional
[10] = Inhibition of equine serum BuChE using S-butylthiocholine iodide as substrate measured after 20 mins by Ellmans method; design: species or system […]
[11] = tested on: Plasmodium berghei; assay: Antiplasmodial activity against Plasmodium berghei assessed as inhibition of schizont maturation at 5 ug/ml relative to control; assay type: functional
[12] = molecular target: T2, cGMP-specific 3',5'-cyclic phosphodiesterase; assay: Inhibition of human PDE5
[13] = molecular target: T2, cGMP-specific 3',5'-cyclic phosphodiesterase; assay: Inhibition of PDE5 (unknown origin)
[14] = molecular target: Amyloid-beta precursor protein (Homo sapiens) (UniProt P05067); assay: Inhibition of self-induced amyloid beta (1 to 42 ) (unknown origin) aggregation at 20 uM measured after 24 hrs by thioflavin-T fluorescence method relative to control
Amyloid-beta precursor protein (Homo sapiens), sequence (P05067 whole entry): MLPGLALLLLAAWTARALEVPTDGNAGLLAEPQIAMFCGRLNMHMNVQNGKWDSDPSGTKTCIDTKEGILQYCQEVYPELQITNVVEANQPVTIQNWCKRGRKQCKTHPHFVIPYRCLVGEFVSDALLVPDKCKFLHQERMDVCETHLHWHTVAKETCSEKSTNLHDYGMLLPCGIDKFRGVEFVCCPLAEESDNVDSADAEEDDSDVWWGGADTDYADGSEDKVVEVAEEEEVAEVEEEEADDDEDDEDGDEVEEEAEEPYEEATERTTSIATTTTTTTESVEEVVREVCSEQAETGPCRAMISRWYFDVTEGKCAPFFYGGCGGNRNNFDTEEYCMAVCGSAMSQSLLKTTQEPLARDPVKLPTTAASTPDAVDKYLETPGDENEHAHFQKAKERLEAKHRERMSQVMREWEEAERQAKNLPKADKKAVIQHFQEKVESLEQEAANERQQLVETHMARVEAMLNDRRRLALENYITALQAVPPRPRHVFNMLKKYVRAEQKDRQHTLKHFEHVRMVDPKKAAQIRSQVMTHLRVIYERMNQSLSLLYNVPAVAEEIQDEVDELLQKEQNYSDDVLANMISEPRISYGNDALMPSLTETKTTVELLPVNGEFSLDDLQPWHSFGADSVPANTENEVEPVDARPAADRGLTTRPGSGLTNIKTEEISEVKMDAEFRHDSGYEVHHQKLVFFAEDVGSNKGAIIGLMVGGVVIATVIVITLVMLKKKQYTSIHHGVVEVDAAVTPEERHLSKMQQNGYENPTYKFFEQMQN

[15] = molecular target: T4, Acetylcholinesterase; assay: Inhibition of electric eel AChE using acetylthiocholine iodide as substrate
[16] = Inhibition of equine serum BuChE using butyrylthiocholine chloride as substrate
[17] = Inhibition of Plasmodium falciparum IspD
[18] = tested on: Gaeumannomyces graminis; assay: Antifungal activity against Gaeumannomyces graminis; assay type: functional, organism-based

Compound: C[C@@H]1N[C@@H](C(=O)NN)Cc2c1[nH]c1ccccc21
Activity [1]: 64.2%
Activity [2]: 57.2%
Activity [3]: 59.5%

IC50 [4]: 239 nM
IC50 [5]: 197 nM
IC50 [6]: 653 nM
Compound: O=C(Cc1cnc(N2CCC(CN3CC(=O)N4[C@H](c5ccc6c(c5)OCO6)c5[nH]c6ccccc6c5C[C@@H]4C3=O)CC2)nc1)NO

IC50 [7]: 4300 nM
Compound: CCCCN1C(=O)[C@@H]2Cc3c([nH]c4ccccc34)[C@@H](c3cccc(O)c3)N2C1=O

Compound: O=C(CCCCN1CCc2c([nH]c3ccccc23)C1)Oc1ccc(/C=C2/CCc3nc4ccccc4c(=O)n32)cc1
IC50 [8]: 1.08 nM

Compound: CC1N[C@H](C(=O)N/N=C/c2ccc(Cl)cc2)Cc2c1[nH]c1ccccc21 (stereo partly drawn)
Activity [1]: 66.9%
Activity [2]: 63.2%
Activity [3]: 68.1%

Compound: CCOC(=O)[C@H]1Cc2c([nH]c3ccccc23)[C@H](C)N1
Activity [1]: 50.4%
Activity [2]: 43.9%
Activity [3]: 47.9%

Compound: CNCC(=O)N[C@@H](CO)C(=O)N[C@H]1[C@H](O)[C@@H](O)[C@H](n2ccc(N)nc2=O)O[C@@H]1C(N)=O [NINGNANMYCIN]
Activity [1]: 57.3%
Activity [2]: 54.2%
Activity [3]: 55%

Compound: CC1N[C@@H](C(=O)N/N=C/c2ccc(Cl)cc2)Cc2c1[nH]c1ccccc21 (stereo partly drawn)
Activity [1]: 70.4%
Activity [2]: 71.5%
Activity [3]: 64.2%

Compound: C[C@@H]1N[C@H](C(=O)Nc2ccccc2C2=N[C@@H](C)CO2)Cc2c1[nH]c1ccccc21
inhibition at 10000 µg/mL [9]: 65.8%

Compound: c1ccc2c(NCCCCCCCN3CCc4c([nH]c5ccccc45)C3)c3c(nc2c1)CCCC3
IC50 [8]: 17.4 nM
IC50 [10]: 3.16 nM

IC50 [6]: 46 nM
Compound: O=C(CCCCCCN1CC(=O)N2[C@H](c3ccc(Br)cc3)c3[nH]c4ccccc4c3C[C@@H]2C1=O)NO

Compound: CC1N[C@@H](C(=O)N/N=C/C2CCCCC2)Cc2c1[nH]c1ccccc21 (stereo partly drawn)
Activity [1]: 75.8%
Activity [2]: 62.8%
Activity [3]: 69.2%

Compound: CCCCOC(=O)[C@H]1Cc2c([nH]c3ccccc23)[C@H](C)N1
Activity [1]: 51.3%
Activity [2]: 42.2%
Activity [3]: 43.2%

Compound: COC(=O)[C@@H]1Cc2c([nH]c3ccccc23)[C@@H](c2cccnc2)N1
inhibition at 5 µg/mL [11]: 86.2%

Compound: COC(=O)c1cc2c(cn1)[nH]c1ccccc12 [BETA-CCM]
IC50 [12]: 800 nM

IC50 [13]: 35 nM
Compound: COc1cccc2c1C(=O)N1CCc3c([nH]c4cccc(OC)c34)[C@@H]1C2C (stereo partly drawn)

IC50 [4]: 0.7 nM
Compound: CN1C(=O)C2CN(Cc3c2c2ccccc2n3Cc2ccc(C(=O)NO)cc2)C1=O (stereo not drawn)

Compound: COc1ccc2[nH]c3c(c2c1)CCN(C(=O)/C=C/c1ccc(O)c(O)c1)C3C (stereo not drawn)
inhibition [14]: 65%
IC50 [15]: 75300 nM
IC50 [16]: 6470 nM

IC50 [17]: 210 nM
Compound: O=C(O)[C@@H]1Cc2c([nH]c3ccccc23)[C@@H](c2ccc(Cl)cc2Cl)N1

Compound: COC(=O)[C@@H]1Cc2c([nH]c3ccccc23)[C@@H](c2ccc3c(c2)OCO3)N1
inhibition at 5 µg/mL [11]: 71.8%

Compound: CC1c2[nH]c3ccccc3c2CCN1C(=O)/C=C/c1ccc(O)c(O)c1 (stereo not drawn)
IC50 [15]: 21300 nM
IC50 [16]: 1320 nM

EC50 [18]: 3.53 µg/mL (≈ 9.09 µM)
Compound: C[C@@H]1COC(c2ccccc2NC(=O)[C@@H]2Cc3c([nH]c4ccccc34)[C@H](C)N2)=N1
inhibition at 10000 µg/mL [9]: 72.2%
